Source: patent US20200281873A1, “Adamantane or Bicyclic Monoterpenoid Derivatives for Use in the Treatment of Leishmaniasis” (Commissariat a l'Energie Atomique et aux Energies …, priority 2017, published 2020)

Key:
[1] = tested on: L. donovani (MHOM/ET/67/HU3) amastigotes; assay: In vivo antileishmanial evaluation, Leishmania donovani/Balb/c mouse model (liver parasite load); conditions: for % reduction of parasite burden in the liver / LDU ± SD (parasites in the liver): Balb/c mice
Protocol: Compounds VP343, VP370 were evaluated in vivo for their antileishmanial properties by oral and intravenous route on the Leishmania donovani/Balb/c mouse model, comparatively to miltefosine, used as reference drug, according to a previously described protocol (Balaraman et al., 2015). Six- to eight-week-old Balb/c mice (Élevages Janvier, Le Genest Saint Isle, France) were infected intravenously on day 1 with 10^7 L. donovani (MHOM/ET/67/HU3) amastigotes derived from the spleen of hamsters and randomly sorted into four groups of 10 mice and one group of 12 mice as infected controls but not treated. The treatment administered orally or intravenously, started one week post-infection, on day 8, and continued for 5 consecutive days. At day 15, all groups of mice were autopsied and livers and spleens were weighed. Parasite load in the liver was determined by counting the number of amastigotes/500 liver cells in Giemsa-stained impression smears prepared from the liver and applying Stauber's formula. Three researchers counted the slides independently and the results are expressed as the mean values±SD. The parasite burden of treated groups and controls were compared using Student's t-test or the Kruskal-Wallis nonparametric analysis of variance test for comparing two groups. Significance was established for a P value<0.05.

[2] = In vivo toxicity evaluation by oral route in mice (serum biochemical parameters); set-up: species or system Balb/C female mice
Protocol: Biochemical parameters relative to VP343 and VP370 toxicity in Balb/C female mice (18-20 g) after a single treatment by oral route at 100 mg/kg under a 0.1 mL volume (=5 mL/kg). Serum were collected one week after the treatment. Excipient: Methylcellulose 1%+Tween 0.1%.
Dosages were performed with a Cobas 800 (Roche/Hitachi) apparatus.

[3] = intravenous route, 10 mg/kg/day × 5
[4] = single oral treatment 100 mg/kg, serum one week after treatment

## COc1ccc(Br)cc1CN(C)C12CC3CC(CC(C3)C1)C2 [VP343]
[1]; 10 mg/kg/day×5 intravenous, Dunn's multiple comparisons test
  Activity in vivo by intravenous route (in words): significantly active
[1]; [3]
  % reduction of parasite burden in the liver: 42.4%
  LDU ± SD (parasites in the liver): 0.19 ± 0.09 ×10^8
[1]; oral route, 10 mg/kg/day × 5
  % reduction of parasite burden in the liver: 60.2%
[1]; oral route, 10 mg/kg/day × 5, autopsy day 15
  LDU ± SD (parasites in the liver): 0.49 ± 0.07 ×10^9
[1]; oral route, 20 mg/kg/day × 5
  % reduction of parasite burden in the liver: 70.8%
[1]; oral route, 20 mg/kg/day × 5, autopsy day 15
  LDU ± SD (parasites in the liver): 0.36 ± 0.08 ×10^9
[1]; VP343 and VP370 at 20 mg/kg/day×5, VP343 also at 10 mg/kg/day×5, Tukey's multiple comparisons test
  Activity in vivo by oral route (in words): significantly active
[2]; [4]
  Serum AST ± SD: 391 ± 72 U/L
  Serum AST ± SD (second AST column): 169 ± 34 U/L
  Serum creatinin: <18 µM
[2]; single treatment by oral route at 100 mg/kg
  Toxicity after single oral treatment (in words): did not show toxicity
